{"source": "patent US20230212533A1", "about": "(THE REGENTS OF THE UNIVERSITY OF MICHIGAN, priority 2020, published 2023)", "key": {"[1]": {"system": "L-6-hydroxynicotine oxidase (LHNO, 3NG7), wild type, SEQ ID NO:13", "settings": "cited from earlier work; for kcat/Km: wild-type LHNO"}, "Escherichia coli": {"system": "Escherichia coli", "assay": "toxicity to E. coli", "type": "cell-based", "procedure": "(§1) Directed evolution is a powerful means to improve enzyme function. […] The experiments are performed using the fast-growing model organism, Escherichia coli, which permits evaluation of many variants of NicA2 for performance-enhancing mutations. […] Identification of these variants is expected to reveal the molecular determinants of wild-type NicA2's low O2-dependent activity.\nas §1, with “were” for “are”, “permitted” for “permits”"}, "[2]": {"target": "T1, Pseudomonas putida S16 nicotine oxidoreductase NicA2, wild type, SEQ ID NO:131 (Pseudomonas putida, UniProt F8G0P2)", "settings": "anaerobic, pH 7.5, 4° C., 450 nm", "description": "All stopped-flow experiments were performed in 40 mM HEPES-KOH, pH 7.5, 100 mM NaCl, 10% glycerol at 4° C. NicA2 and CycN solutions were made anaerobic in glass tonometers by repeated cycles with vacuum and anaerobic argon^42. When needed, NicA2's FAD was reduced in the anaerobic tonometer by titrating with a dithionite solution housed in a gas-tight Hamilton syringe. The dithionite solution was slowly added up to the point where NicA2's flavin reached the fully-reduced hydroquinone state, and the redox status of the flavin was spectrophotometrically monitored during the titration using a Shimadzu UV-1900 UV-VIS spectrophotometer. […] The various O2/N2 gas ratios were prepared from O2 and N2 gas cylinders using a Maxtec MaxBlend 2 gas mixer, and the dissolved O2 concentration in the buffer solution was calculated using a Henry's law constant for O2 of 770 atm M^−1.\nStopped-flow experiments were conducted using a TgK Scientific SF-61 DX2 KinetAsyst stopped-flow instrument that had been previously equilibrated with a glucose/glucose oxidase solution to make the internal components of the system anaerobic. […] The reaction of NicA2-Flred with O2 was monitored using the instrument's multi-wavelength CCD detector (1.6 ms data interval time). […]"}, "[3]": {"target": "T1, Pseudomonas putida S16 nicotine oxidoreductase NicA2, wild type, SEQ ID NO:131", "settings": "WT P. putida S16; about 5 mM nicotine degraded by about 3.5 nM NicA2 in 16 hours", "description": "Both wild-type and ΔcycN strains were grown overnight in LB. The next day, these cultures were diluted to OD 0.1 in 5 mL M9 salts+0.4% glycerol and allowed to grow for 2 hours. […] From then on, the cultures were sampled at 2, 4, 8, 24, and 49 hours. 200 μL of culture was extracted at each time point and spun down at 16,000 g for 10 minutes. The supernatant was isolated, and 100 μL supernatant was mixed with 300 μL methanol to prepare HPLC samples. The cell pellet was resuspended in 100 μL Bacterial Protein Extraction Reagent (B-PER; Thermo Fisher) and allowed to incubate at room temperature for 15 minutes to complete lysis. After this time had elapsed, 25 μL of 5× reducing gel loading buffer was added to each sample.\nSamples for HPLC were further clarified by spinning at 16,000 g for 30 minutes. 100 μL of each clarified sample was placed into autosampler vials. […] Samples and standards were within the linear range of detection, and the absorbance peaks were integrated for quantification.\nSamples for western blot analysis were boiled for 5 minutes. […] Protein bands were quantified using LI-COR Odyssey software, and the NicA2 standard curve was used to determine the linear range of detection and concentration of NicA2 at each time point from the experiment."}, "[4]": {"target": "T1, Pseudomonas putida S16 nicotine oxidoreductase NicA2, wild type, SEQ ID NO:131", "settings": "estimated from reported doubling time of one hour"}, "[5]": {"system": "Pseudomonas putida S16 nicotine oxidoreductase NicA2, wild type, SEQ ID NO:131", "settings": "in vitro, cited from earlier work"}, "[6]": {"settings": "cited from earlier work"}, "[7]": {"target": "T1, Pseudomonas putida S16 nicotine oxidoreductase NicA2, wild type, SEQ ID NO:131", "description": "All stopped-flow experiments were performed in 40 mM HEPES-KOH, pH 7.5, 100 mM NaCl, 10% glycerol at 4° C. NicA2 and CycN solutions were made anaerobic in glass tonometers by repeated cycles with vacuum and anaerobic argon^42. When needed, NicA2's FAD was reduced in the anaerobic tonometer by titrating with a dithionite solution housed in a gas-tight Hamilton syringe. The dithionite solution was slowly added up to the point where NicA2's flavin reached the fully-reduced hydroquinone state, and the redox status of the flavin was spectrophotometrically monitored during the titration using a Shimadzu UV-1900 UV-VIS spectrophotometer. […] Buffer containing O2 at specific concentrations was prepared by sparging different O2/N2 gas ratios through buffer in a gas-tight syringe for at least 15 minutes at room temperature. The various O2/N2 gas ratios were prepared from O2 and N2 gas cylinders using a Maxtec MaxBlend 2 gas mixer, and the dissolved O2 concentration in the buffer solution was calculated using a Henry's law constant for O2 of 770 atm M^−1.\nStopped-flow experiments were conducted using a TgK Scientific SF-61 DX2 KinetAsyst stopped-flow instrument that had been previously equilibrated with a glucose/glucose oxidase solution to make the internal components of the system anaerobic. […] The reaction of NicA2-Flred with O2 was monitored using the instrument's multi-wavelength CCD detector (1.6 ms data interval time). […] Kinetic traces were fit to sums of exponentials using KaleidaGraph (Synergy Software) to determine observed rate constants.\nWe next monitored the reaction of NicA2-Flred with O2 in the oxidative half reaction via stopped-flow experiments."}}, "note": "“And” between values parts separate entries of the source, which are not always exact repeats. Equal entries are not always repeated. Where two headings read alike, the source gives them in different places.", "data": [{"smiles": "CN1CCC[C@H]1c1ccc(O)nc1", "note": "[L-6-hydroxynicotine]", "values": [{"measurement": "kcat", "setting": "[1]; O2 as the electron acceptor for flavin oxidation, substrate L-6-hydroxynicotine", "value": 78, "unit": "s⁻¹"}, {"measurement": "kcat/Km", "setting": "[1]", "value": 600, "unit": "mM⁻¹ s⁻¹"}]}, {"smiles": "CN1CCC[C@H]1c1cccnc1", "note": "[nicotine]", "values": [{"measurement": "concentration toxic to E. coli", "setting": "Escherichia coli; about this level or higher", "value": "about 1 mg/mL"}, {"measurement": "kobs (fastest phase, reduction of NicA2's FAD by nicotine)", "setting": "[2]", "value": "about 180 s^−1"}, {"measurement": "in vivo turnover rate", "setting": "[3]", "value": "about 24 s^−1"}, {"measurement": "kcat for degrading nicotine relative to NicA2", "setting": "[1]; oxygen dependent reaction", "value": 5, "unit": "fold"}, {"measurement": "in vivo turnover rate (kcat)", "setting": "[4]", "value": 1, "unit": "s⁻¹"}, {"measurement": "turnover number (O2-dependent nicotine turnover)", "setting": "[5]; O2 as electron acceptor", "value": 0.007, "unit": "s⁻¹"}, {"measurement": "kcat (conversion of nicotine to pseudooxynicotine)", "setting": "[5]; oxygen as electron acceptor", "value": 0.007, "unit": "s⁻¹"}]}, {"smiles": "CNCCCC(=O)c1cccnc1", "note": "[pseudooxynicotine]", "values": [{"measurement": "concentration up to which non-toxic to E. coli", "setting": "Escherichia coli; e. coli culture", "value": "at least 5 mg/mL"}, {"measurement": "addictiveness in animal models", "setting": "[6]", "value": "non-addictive"}, {"measurement": "toxicity in animal models", "setting": "[6]", "value": "non-toxic"}]}, {"smiles": "O=O", "note": "[O2, molecular oxygen]", "values": [{"measurement": "kcat", "setting": "[1]; reaction with oxygen", "value": 78, "unit": "s⁻¹"}, {"measurement": "kobs of NicA2-Flred oxidation by O2", "setting": "[7]; at ~250 μM O2, calculated from bimolecular rate constant", "value": 0.007, "unit": "s⁻¹"}, {"measurement": "bimolecular rate constant for flavin oxidation by O2 (kox^O2)", "setting": "[7]; pH 7.5, 4° C., 450 nm", "value": "27 ± 1 M⁻¹ s⁻¹ and 27 M⁻¹ s⁻¹"}]}, {"smiles": "CN1CCC[C@H]1c1cccnc1", "note": "[L-nicotine]", "values": [{"measurement": "kcat/Km", "setting": "[1]", "value": 0.042, "unit": "mM⁻¹ s⁻¹"}]}]}
